Test results from patent publication US20250170103A1, “4-(6-OXO-2-(TRIFLUOROMETHYL)-3,6-DIHYDROCHROMENO[7,8-D]IMIDAZOL-8-YL)BENZONITRILE FOR USE IN THE TREATMENT OF DISEASES AND CONDITIONS ASSOCIATED WITH MOVEMENT DISORDERS” (OnTrack Therapeutics Limited, priority 2022, published 2025).

B1: BDNF: classical neurotrophic factor, used as an endogenous activator of the signalling pathway under investigation (protein, UniProt P23560 19-247, looked up)
Neurotrophic factor BDNF …: APMKEANIRGQGGLAYPGVRTHGTLESVNGPKAGSRGLTSLADTFEHVIEELLDEDQKVRPNEENNKDADLYTSRVMLSSQVPLEPPLLFLLEEYKNYLDAANMSMRVRRHSDPARRGELSVCDSISEWVTAADKKTAVDMSGGTVTVLEKVPVSKGQLKQYFYETKCNPMGYTKEGCRGIDKRHWNSQCRTTQSYVRALTMDSKKRIGWRFIRIDTSCVCTLTIKRGR

Legend:
[1] = system: primary SOD1 transgenic spinal cord motor neurons injured with glutamate; experiment: In vitro ALS model: glutamate-injured primary spinal motor neurons (MAP2/TDP43, 24 hours); format: cell-based, rat; conditions: for number of motor neurons: FIG. 5
Method: Cells were mechanically dissociated by three forced passages through the tip of a 10-ml pipette. Cells were then centrifuged at 515×g for 10 min at 4° C. […] Viable cells were counted in a Neubauer cytometer, using the trypan blue exclusion test. […] The medium was changed every 2 days.

5XFAD mice = conditions: repeated administration, WO2020/033604; cited from earlier work
[2] = system: dopaminergic TH-positive neurons injured with MPP+; experiment: MPP+ in vitro Parkinson's disease model, mitochondrial ROS in TH neurons at 4 hours (TH/ROS plate); format: cell-based, rat; conditions: CF3CN 10 nm to 1 μm, 1 h pre-incubation, MPP+ 4 μM, FIG. 1
Method: (§1) The ventral portion of the mesencephalic flexure, a region of the developing brain rich in dopaminergic neurons, was used for the cell preparations.
(§2) (solution at a final concentration of 0.05% trypsin and 0.02% EDTA). […] Cells were then mechanically dissociated by 3 passages through a 10 ml pipette. Cells were then centrifuged at 180×g for 10 min at +4° C. on a layer of BSA (3.5%) in L15 medium. […] Viable cells were counted in a Neubauer cytometer using the trypan blue exclusion test. […] Half of the medium was changed every 2 days with fresh medium.

[3] = system: dopaminergic TH-positive neurons injured with MPP+; experiment: MPP+ in vitro Parkinson's disease model, TH/αSyn plate at 48 hours (α-syn, DA neurons, neurites); format: cell-based, rat; conditions: MPP+ 4 μM
Method: as §1, §2
The cells were washed twice in PBS, and then permeabilized.

Row | Molecule | neurite network ([1]; CF3CN 10 and 100 nm, glutamate 5 μM 20 min, 24 hours, compared to the control, FIG. 6) | level of extranuclear TDP-43 versus the positive controls ([1]; CF3CN 10 nm and 100 nm, compared with Riluzole 5 μM and BDNF 50 ng/ml) | number of motor neurons ([1]; CF3CN 10 nm, 100 nm and 1 μm, glutamate 5 μM 20 min, 24 hours, compared to the control) | number of extranuclear TDP-43 ([1]; CF3CN all concentrations except the highest and the lowest (10 nM to 5 μM), glutamate 5 μM 20 min, 24 hours, FIG. 7) | synaptic loss (5XFAD mice) | reduction of mitochondrial stress (ROS in TH(+) neurons) [2] | level of neurites ([3]; CF3CN 1 nm to 1 μm, FIG. 4) | number of DA neurons ([3]; CF3CN 10 and 100 nm, FIG. 3) | level of α-syn ([3]; all dose levels (1 nM to 5 μM) except 10 μm, FIG. 2) | number of motor neurons ([1]; positive controls: Riluzole 5 μM, BDNF 50 ng/ml, glutamate 5 μM 20 min, 24 hours, compared to the control)
1 | N#Cc1ccc(-c2cc(=O)c3ccc4[nH]c(C(F)(F)F)nc4c3o2)cc1 [CF3CN, 4-(6-oxo-2-(trifluoromethyl)-3,6-dihydrochromeno[7,8-d]imidazol-8-yl)benzonitrile] | increased the neurite network in a statistically significant manner | greater decrease in the level of extranuclear TDP-43 than the positive controls | statistically significant increase in the number of motor neurons | decreased the number of extranuclear TDP-43 in a statistically significant manner | prevent synaptic loss | statistically significantly reduced ROS | increase the level of neurites | increase the number of DA neurons | statistically significantly reduce the level of α-syn | 
2 | B1 |  |  |  |  |  |  |  |  |  | statistically significant increase in the number of motor neurons
